We go through 1 compound from US8211874B2, “Inhibition of thrombin generation” (Galderma Laboratories Inc., priority 2005, dated 2012).

One data set deals with thrombin generation. Kind of data set: Thrombin generation in platelet poor plasma (Thrombinoscope, Innovin or Actin trigger). The format is biochemical, human. The conditions noted are these: COL-3 final concentration 10.72, 21.44 and 536 μl, Innovin 5 pM or Actin 1:20 trigger, FIGS. 1A and 1B. As to the method: (§1) COL-3 was dissolved in DMSO (dimethyl sulfoxide, Sigma, St. Louis, Mo.). Blood was drawn from 5 consented healthy volunteers into 3.2% citrate tubes.
For thrombin generation experiments 80 μl of platelet poor plasma containing either saline, DMSO or COL-3 at final concentration of […] and thrombin generation trigger (Innovin 5 pM, or Actin 1:20 dilution, Dade Behring, Marburg, Germany) were added to 96 well microtiter plate (Microfluor-2, Thermolabsystems, Franklin Mass.) followed by 20 μl of calcium-substrate (Z-GGR-AMC, Bachem, Switzerland) buffer. The reaction was monitored by measuring increase in fluorescence at 390 nm excitation and 460 nm emission wavelengths and the acquired data was processed for lag time and peak thrombin generation parameters using Thrombinoscope software (Thrombinoscope BV, Maastricht, the Netherlands). The data were imported into excel file and the % decrease in thrombin generation due to COL-3 was calculated. Data were analyzed using repeated ANOVA p<0.05 was considered significant.

For the next data set, the system named is plasma PT. Kind of data set: Prothrombin time (PT) in plasma. The class given is biochemical, human. The conditions noted are these: COL-3 10.72, 21.44 and 536 μM, FIG. 2. On the procedure:
as §1
(§2) Maximum amplitude (MA), angle, and R-value were recorded. For prothrombin time (PT) and activated partial thromboplastin time (aPTT) blood samples were centrifuged for 15 min at 3000× g to obtain plasma and COL-3 was added to a final concentration of 10.72, 21.44 and 536 μM. Testing was done using Start 4instrument (Diagnostic Stago, Parsippainy, N.J.) along with appropriate standards and controls.

The subject of the next data set is plasma aPTT. Kind of data set: Activated partial thromboplastin time (aPTT) in plasma. The class given is biochemical, human. The conditions noted are these: COL-3 10.72, 21.44 and 536 μM, FIG. 2. On the procedure:
as §1, §2

The next data set has as its system platelets. Kind of data set: Platelet aggregation (light transmittance aggregometer, ADP and collagen activators). The following applies: 200,000 platelets/μl; ADP and collagen (20 μM) as activators. The class given is cell-based, human. As to the method: as §1
For platelet aggregation studies platelet rich and platelet poor plasma was separated by centrifugation. All platelet studies were performed in a total volume of 500 μl with 200,000 platelets/μl. Platelet aggregation was quantitated by measuring changes in light transmittance in dual channel aggregometer (Chronolog Corp. Havertown, Pa.) using ADP (adenosine di-phosphate) and collagen (final concentration 20 μM) as activators.

The test system of a further data set is whole blood. Kind of data set: TEG (Thromboelastograph) of whole blood activated with tissue factor. The format is cell-based, human. The following applies: COL-3 10.72 or 21.44 μM, TF 4 pM. On the procedure:
as §1
For TEG (Thromboelastograph, Haemoscope Corp, Skokie Ill.) whole blood samples (0.34 ml) were added to cups along with 10 μl of saline (control), DMSO, or COL-3 (final concentration of 10.72 or 21.44 μM). After addition of calcium chloride (20 μl of 0.2 M), samples were activated with TF (tissue factor) (4 pM) and TEGs (thrombelastogram) were run according to manufacturers directions.
as §2

A short description of data set [1]: Plasma concentration in humans after daily dose. The format is in vivo. The conditions noted are these: dose of about 10 to about 20 mg/day.

As to `NC(=O)C1=C(O)C[C@@H]2C[C@@H]3Cc4cccc(O)c4C(=O)C3=C(O)[C@]2(O)C1=O` [COL-3, 6-demethyl-6-deoxy-4-de(dimethylamino)tetracycline], the thrombin generation result in the data set on thrombin generation is on record as “dose dependent reduction”. In addition, the PT values result in the data set with plasma PT is reported as “increased only at the highest concentration”. In addition, in the data set on plasma aPTT, the aPTT values entry was “increased only at the highest concentration”. For the same compound, the platelet aggregation entry with platelets is “no effect”. Moreover, the “TEG parameters (maximum amplitude (MA), angle, R-value)” value in the data set on whole blood is given as “no effect”. The “plasma concentrations in humans” value in data set [1] was “about 1.0 μg/ml”.
